Data: patent US20080255244A1, “CaM Kinase II Inhibitor Improves Retinoic Acid Therapy and Inhibits the Proliferation of Myeloid Leukemia Cells” (Fred Hutchinson Cancer Research Center, priority 2007, published 2008)

What was measured:
[1] = test system: NB4 promyelocytic leukemia cell line; experiment: Differentiation of NB4 cells (morphology, Cd11b); format: cell-based, human; conditions: five days; for morphologic granulocytic differentiation of NB4: single agent, KN-62 5 μM, ATRA 10^−9 M
Method: (§1) FIG. 7. KN-62 regulates the differentiation of myeloid leukemia cell lines. (A) Wright Giemsa-stained HL-60 cells either (a) uninduced or treated for five days with (b) KN62 or (c) ATRA. (d) CD11b expression in HL-60 cells after five days exposure to KN62 (5 μM) or ATRA (1 μM). (B) Wright-Giemsa stained NB4 cells treated for five days with KN-62 (5 μM) and ATRA as indicated. […] (C) Cd11b expression of NB4 cells treated for five days with the indicated concentrations of RA and/or KN-62. (D) Western blots with the indicated antibodies were performed on HL60 cell lysates following incubation with KN62 for the indicated period of time. (E) Western blots of NB4 cell lysates following a five day incubation with the indicated compounds.
Antibodies and chemical reagents. Antibodies against RARα, βtubulin, CaMKIIα, CaMKIIβ, CaMKIIγ, CaMKIIδ, CaMKIα, as well as phosphospecific antibodies against CaMKII were all purchased from Santa Cruz Biotechnology. Antibodies against N-CoR and SMRT were from Upstate Biotechnology. CaMKIV antibody was from BD Biosciences. Anti-FLAG antibody was from Sigma while anti-HA antibody from Novachem. Quantitation of CD11b surface antigen expression was performed utilizing the fluorescent-activated cell sorter (FACS) with PE-conjugated anti-CD11b antibody from Becton Dickinson. KN-62, KN-93 and ionomycin were obtained from Calbiochem. ATRA and calmodulin agarose beads were from Sigma.

[2] = test system: autophosphorylated CaMKIIγ in NB4 cells; experiment: Western blot of CaMKIIγ autophosphorylation in NB4 cells; format: cell-based, human; conditions: for activated, autophosphorylated CaMKIIγ level: single agent, ATRA 1 μM, arsenic trioxide 1 uM
Method: as §1
(§2) FIG. 9. Terminal differentiation/apoptosis of myeloid leukemia cells is associated with decreased CaMKIIγ activation. (A) Lysates from the HL60, NB4 and U937 myeloid cell lines treated with ATRA (1 μM) for the indicated period of time were subjected to Western blots. (B) Lysates from the indicated myeloid cell lines treated for five days with the indicated concentration of ATRA were subjected to Western blots. (C) Lysates from HL60 cells treated with TPA (0.1 μM) for the indicated time were subjected to Western blots. (D) Lysates from NB4 cells treated with arsenic trioxide (1 uM) for the indicated time were subjected to Western blots.
(§3) Protein extracts, Western blotting and co-immunoprecipitations. Westerns and co-immunoprecipitations were performed as previously detailed (Si, J., and Collins, S. J., Blood 100:4401-4409 (2002)).
(§4) Antibodies and Western blots. Protein extracts, immunoprecipitations and Western blots were performed as previously detailed (Si J, Collins S J. IL-3-induced enhancement of retinoic acid receptor activity is mediated through Stat5, which physically associates with retinoic acid receptors in an IL-3-dependent manner. Blood 100: 4401-9 (2002)). Antibodies against CaMKI, CaMKIIγ, CaMKIV, c-myc, Stat3, Stat5, calmodulin, as well as the phosphospecific CaMKII (T286, 287) and phosphospecific CaMKI (T177) antibodies were from Santa Cruz Biotechnology. Antibodies against phospho-Stat1 (Ser727), phospho-Stat3 (Ser727 and Tyr 705), phospho-Stat5 (Tyr 694), phospho-p44/42 MAP kinase (Thr202/Tyr 204), p44/42 MAP kinase, phospho-p38 MAP kinase (Thr 180/Tyr 182), phospho-GSK3β (Ser9) were from Cell Signaling Technology. Antibodies against Stat1, GSK3β, β-catenin, PP2Ac, and cyclin D1 were from BD Biosciences.

RARα/N-CoR interaction = biological target: T1, RARα/N-CoR interaction (Homo sapiens, UniProt P10276); experiment: Mammalian two hybrid, Gal-N-CoR / RARαVP16, in MPRO promyelocytes; format: cell-based; conditions: ATRA six hours, KN62 48 hours
T1 construct: expressed in transfected cells; host or cells: MPRO promyelocytes (murine), electroporated
T1 sequence (P10276 whole entry): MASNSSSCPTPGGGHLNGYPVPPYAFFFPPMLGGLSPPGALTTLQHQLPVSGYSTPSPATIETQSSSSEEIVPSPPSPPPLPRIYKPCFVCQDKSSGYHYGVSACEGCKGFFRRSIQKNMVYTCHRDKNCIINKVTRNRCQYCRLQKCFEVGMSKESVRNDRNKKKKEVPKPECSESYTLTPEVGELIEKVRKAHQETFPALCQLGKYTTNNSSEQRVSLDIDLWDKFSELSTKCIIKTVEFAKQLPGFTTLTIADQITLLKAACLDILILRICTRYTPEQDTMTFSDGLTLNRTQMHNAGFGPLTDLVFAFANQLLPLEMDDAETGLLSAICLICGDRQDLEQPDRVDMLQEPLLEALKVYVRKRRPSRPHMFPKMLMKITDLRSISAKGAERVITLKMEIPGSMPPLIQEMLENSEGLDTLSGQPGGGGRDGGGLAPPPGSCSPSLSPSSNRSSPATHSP
Text: Transient transfections and luciferase assays. Murine PT67 fibroblasts were transfected utilizing calcium phosphate precipitation. All hematopoietic cell lines were transiently transfected by electroporation as previously detailed (Johnson, B. et al., Molecular and Cellular Biology 19:3372-3382 (1999)). In the transient transfections the LXSN vector (M28248) served as the expression vector for the wild type and site-directed mutagenized CaMKII and RARα coding region cDNAs. Human cDNA homologous to the coding region of rat CaMKIINα, a CaMKII inhibitory protein, was obtained by RT-PCR from HL60 RNA and cloned into the LXSN vector. The RA-responsive luciferase reporter harbors the RARE from the RARβ2 promoter as previously detailed (Si, J., and Collins, S. J., Blood 100:4401-4409 (2002)). The PON838 plasmid, a β-galactosidase reporter driven by the β-actin promoter, was used as an internal control to determine transfection efficiency for calculating relative luciferase activity.

[3] = test system: autophosphorylated CaMKIIγ in HL60 cells; experiment: Western blot of CaMKIIγ autophosphorylation in HL60 cells; format: cell-based, human; conditions: for activated, autophosphorylated CaMKIIγ level: phospho-T286/7 antibody, ATRA 1 μM, TPA 0.1 μM
Method: as §1, §2, §3, §4

K-562 cells = experiment: Differentiation of K-562 cells; format: cell-based, human
Text: Pharmacological CaMK inhibitors trigger myeloid leukemia cell differentiation. Particularly compelling evidence for the physiological importance of the CaMKII—mediated regulation of RAR activity is our experimental observation that KN-62, a pharmacological inhibitor of the CaMKs, enhances both RAR transcriptional activity (FIG. 1B) and the differentiation of certain myeloid leukemia cell lines (FIG. 7). Acute myelogenous leukemia (AML) is a heterogenous disease, and successful therapy with RA has been generally confined to those leukemias harboring RARα chromosome translocations.
Inhibitors of CaMKII inhibit the proliferation of myeloid leukemia cell lines. To determine whether inhibiting CaMKIIγ activity might have any effect on myeloid leukemia cell proliferation/viability, we treated K562 cells with the CaMK inhibitor KN93. […] The KN93 induced inhibition of K562 cell proliferation was accompanied by a reduction in the levels of the activated (autophosphorylated) CaMKIIγ (FIG. 12A, row 1).

[4] = test system: autophosphorylated CaMKIIγ in TonB210.1 cells; experiment: bcr-abl induced CaMKII autophosphorylation in TonB210.1 cells (Western blot); format: cell-based; conditions: TonB210.1 deprived of IL-3 for 24 hours, compound added with doxycycline
CaMKs = conditions: inhibitors interfere with binding of Ca++/CaM to the CaMKs; cited from earlier work

Row | SMILES | morphologic granulocytic differentiation of NB4 [1] | total CaMKIIγ level [2] | activated, autophosphorylated CaMKIIγ level [2] | (UAS)5-driven luciferase reporter activity (RARα/N-CoR interaction) (RARα/N-CoR interaction) | total CaMKIIγ level [3] | activated, autophosphorylated CaMKIIγ level [3] | granulocytic differentiation of NB4 (morphology, Cd11b surface antigen) ([1]; KN-62 (5 μM) in combination with RA 10^−9M-10^−10M) | differentiation of K-562 (K-562 cells; preliminary studies, not shown) | bcr-abl (tet/doxycycline) restored CaMKII autophosphorylation [4] | autophosphorylated CaMKIIγ level ([2]; KN62 combined with relatively low concentrations of RA, five days) | IC50 (CaMKs) | morphologic differentiation of K562 (K-562 cells; KN93 treated K562)
1 | CC1=C(/C=C/C(C)=C/C=C/C(C)=C/C(=O)O)C(C)(C)CCC1 [ATRA, All-trans retinoic acid] | little differentiation | essentially unchanged | marked decrease | marked decrease | essentially unchanged | marked decrease |  |  |  |  |  | 
2 | CN([C@@H](Cc1ccc(OS(=O)(=O)c2cccc3cnccc23)cc1)C(=O)N1CCN(c2ccccc2)CC1)S(=O)(=O)c1cccc2cnccc12 [KN-62] | relatively poor inducer |  | little effect | significantly inhibits | did not induce any significant changes | marked reduction | marked increase | does not induce | inhibited in a dose dependent manner | reduction | 0.9 µM | 
3 | COc1ccc(S(=O)(=O)N(CCO)c2ccccc2CN(C)C/C=C/c2ccc(Cl)cc2)cc1 [KN-93] |  |  |  |  |  |  |  |  | inhibited in a dose dependent manner |  | 0.9 µM | no effect
